The target of data set [1] is T1, (human) A2A adenosine receptor (Homo sapiens, UniProt P29274).
T1 construct: purchased PerkinElmer Research Products (Boston, Mass.); host or cells: HEK-293 cells, stably transfected; membrane preparation
The data set is described as follows: Radioligand binding test ([3H]CGS21680 displacement, hA2A HEK-293 cell membranes). As to the method: Cell membranes stably transfected with (human) A2A adenosine receptor were prepared in HEK-293 cells. The cell membranes were obtained from PerkinElmer Research Products (Boston, Mass.).
CGS 21680 (2-[p-(2-carboxyethyl)phenylethylamino]-5′-ethylcarboxamidoadenosine) was purchased from Selleck (Shanghai, CN).
The A2A adenosine receptors used were all expressed in the cell membranes. The compound was diluted 3 times serially with DMSO (Solarbio, D8371-250 ml) to generate compound source plates with 10 different concentrations (10 μM, 3.3 μM, 1.1 μM, 0.37 μM, 0.12 μM, 0.0412 μM, 0.0137 μM, 0.0046 μM, 0.0015 μM, 0.0005 μM), 250 nL of compound was added to 384-well Opti-plate, sealed with parafilm. […] (final 25 nM) was added to the diluted cell membrane and mixed well. 50 μL of the prepared dilution solution of cell membrane was transferred to the 384-well Opti-plate containing compound and incubated at 25° C. for 90 minutes. 100 μL of 0.5% Polyethyleneimine solution (PEI) was added to […]-96 GF/B filter plate, and soaked for 90 minutes at 4° C., then 500 μL of washing buffer/well (50 mM Tris-HCl, pH 7.4, 154 mM NaCl) was transferred with Cell Harvester to wash the […]-96 GF/B filter plate twice. The mixed system in the Opti-plate was transferred to the washed […]-96 GF/B filter plate, 500 μL of washing buffer/well (50 mM Tris-HCl, pH 7.4, 154 mM NaCl) was used to wash the […]-96 GF/B filter plate 9 times. Incubation was performed at 37° C. for 3 minutes. 40 μL of ULTIMA GOLD scintillation solution (Perkin Elmer, Cat #77-16061) was added to each well, CPM (count per minute) value was read by a MicroBeta liquid scintillation counter (PerkinElmer).

The target of data set [2] is human adenosine receptor A2A (Homo sapiens, UniProt P29274). Nature of the data set: A2A adenosine receptor cAMP test (LANCE Ultra cAMP, hADORA2A-HEK293 cells). Type of data set: cell-based. The text has this:
A2A Adenosine Receptor cAMP Test
Experimental reagents and consumables: DMEM/F12, G418, Penicillin-Streptomycin, Versene Solution, HEPES, Hank's Buffered Saline Solution, PBS (pH 7.4, 1×, sterile), FBS, BSA Stabilizer 7.5%, Rolipram, NECA were separately purchased from Gibico, Hyclone and Sigma. LANCE® Ultra cAMP kit (Eu-cAMP tracer, Ulight-anti-cAMP reagent, cAMP detection buffer) and hADORA2A-HEK293 cells were purchased from PerkinElmer Research Products (Boston, Mass.). All other reagents were of analytical grade and obtained from commercial sources. 384-well polypropylene microplate and 384-well solid white plate were purchased from Labcyte and Corning, respectively.
Experimental instruments: TECAN automated liquid handling workstation, Echo Acoustic Liquid Handler and EnVison multimode plate reader were purchased from TECAN, Labcyte and […], respectively.
The cells stably expressing human adenosine receptor A2A (hADORA2A-HEK293 cells) were cultured in DMEM/F12 medium containing 10% FBS, 1× Penicillin-Streptomycin and 400 μg/ml G418 in a 37° C. and 5% CO2 environment. Before the experiment, the cells were digested with Versene solution, and the cells were collected by centrifugation at 200 g and room temperature for 5 minutes, and finally resuspended with assay buffer (Hank's buffered saline solution, containing 5 mM HEPES, 0.1% BSA stabilizer and 10 μM Rolipram, pH 7.4). The TECAN automated liquid handling workstation was used to dilute the compound in a 384-well polypropylene microplate with DMSO to 11 concentration points in a 3-fold gradient to prepare the compound source plate, in which the 11 concentration points of the compound were 10 mM, 3.33 mM, 1.11 mM., 0.37 mM, 0.12 mM, 0.041 mM, 0.013 mM, 4.57×10^−3 mM, 1.52×10^−3 mM, 5×10−4 mM and 1.7×10^−4 mM. The Echo Acoustic Liquid Handler (Labcyte) was used to transfer the test compound from the compound source plate to an assay plate, in which the transfer volume of the compound was 10 nl/well. The hADORA2A-HEK293 cell suspension was diluted with assay buffer to 30,000 cells/ml, and the cell suspension was transferred to the assay plate at a volume of 10 μl/well (300 cells/well). The assay plate was centrifuged at 150 g for 1 minute and pre-incubated at room temperature for 30 minutes. The Eu-cAMP tracer working solution (Eu-cAMP tracer 40 μl, cAMP detection buffer 1.96 ml) (5 μl/well) was added to the assay plate, and then the Ulight-anti-cAMP working solution (13 μl of Ulight-anti-cAMP reagent and 1.95 ml of cAMP detection buffer) (5 μl/well) was added to the assay plate. The assay plate was rotated at 150 g for 30 seconds and incubated at room temperature for 30 minutes. The EnVison multimode plate reader (PerkinElmer) was used determine the level of cyclic adenosine monophosphate in the final solution (λex=320 nm, λem=665 nm & 615 nm). The EC50 (nM) value of the compound interacting with the A2A adenosine receptor to stimulate the production of cyclic adenosine monophosphate was calculated and the titer of the compound function was expressed as the EC50 (nM) value.
When the test compounds interacted with A2AAR, the EC50 (nM) values for stimulating the production of cyclic AMP were shown in Table 2.
For orientation: Time-resolved FRET reads energy transfer from a long-lived donor to a nearby acceptor.

Like-named read-outs stand apart in the source and are kept apart here.

This note sets out measurements from patent US20220363710A1, “SMALL-MOLECULE COMPOUND HAVING A2A ADENOSINE RECEPTOR ANTAGONISM” (ACADEMY OF MILITARY MEDICAL SCIENCES, priority 2019, published 2022).

human adenosine receptor A2A, sequence (P29274 whole entry): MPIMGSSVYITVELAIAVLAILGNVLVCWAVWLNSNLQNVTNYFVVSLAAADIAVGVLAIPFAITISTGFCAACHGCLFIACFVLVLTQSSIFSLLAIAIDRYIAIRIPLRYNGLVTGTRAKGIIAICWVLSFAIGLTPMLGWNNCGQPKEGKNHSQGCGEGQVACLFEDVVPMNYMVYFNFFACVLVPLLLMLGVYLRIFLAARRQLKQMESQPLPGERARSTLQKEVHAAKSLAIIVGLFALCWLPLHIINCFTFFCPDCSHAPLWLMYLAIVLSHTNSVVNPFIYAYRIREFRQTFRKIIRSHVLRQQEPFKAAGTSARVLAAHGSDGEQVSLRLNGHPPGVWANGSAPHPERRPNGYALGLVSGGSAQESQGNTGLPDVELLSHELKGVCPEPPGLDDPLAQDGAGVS
T1 sequence (P29274 whole entry): as above

In turn, `CC(=O)Nc1ccc(-c2nnc3c4ncn([C@@H]5O[C@H](CO)[C@@H](O)[C@H]5O)c4ncn23)cc1` [Compound 1, N-{4-{7-[(2R,3R,4S,5R)-3,4-dihydroxy-5-(hydroxymethyl)tetrahydrofuran-2-yl]-7H-[1,2,4]triazolo[3,4-i]purin-3-yl}phenyl}acetamide] had a melting point of 132 °C. Moreover, the IC50 in data set [1] ([3H]-CGS 21680 25 nM, hA2A HEK-293 cell membrane, 25° C., 90 minutes, read-out: IC50 (nM), compounds binding to A2A adenosine receptor) was found to be 6.4 nM. In data set [1] (read-out: Ki (nM), inhibition constant for binding to A2A adenosine receptor), the Ki was 3 nM. Moreover, the “agonistic activity at hA2AAR (cAMP production)” value in data set [2] is “no agonistic activity”. Besides, the EC50 in data set [2] (stimulating the production of cyclic AMP, read-out: cAMP EC50) was over 10000 nM. Moreover, in data set [2] (stimulating the production of cyclic adenosine monophosphate, read-out: cAMP EC50 values), the EC50 is over 10000 nM.

The term IC50 denotes the midpoint of a concentration-inhibition curve. In general, Ki refers to the equilibrium dissociation constant of an inhibitor or competing ligand from its target. As usually defined, the EC50 is the concentration that produces a half-maximal response. In general, melting point refers to the temperature, or range, at which the solid turns liquid.
